According to paper PMC9030254, “Target Hopping from Protein Kinases to PXR: Identification of Small-Molecule Protein Kinase Inhibitors as Selective Modulators of Pregnane X Receptor from TüKIC Library” (Cells, 2022):

Legend:
Test in all cases: Kinase profiling
Format in all cases: biochemical
NEK1 = target: T1, NEK1 (Homo sapiens, UniProt Q96PY6)
T1 construct: purchased ProQinase (Freiburg, Germany)
T1 sequence (Q96PY6 1-1258): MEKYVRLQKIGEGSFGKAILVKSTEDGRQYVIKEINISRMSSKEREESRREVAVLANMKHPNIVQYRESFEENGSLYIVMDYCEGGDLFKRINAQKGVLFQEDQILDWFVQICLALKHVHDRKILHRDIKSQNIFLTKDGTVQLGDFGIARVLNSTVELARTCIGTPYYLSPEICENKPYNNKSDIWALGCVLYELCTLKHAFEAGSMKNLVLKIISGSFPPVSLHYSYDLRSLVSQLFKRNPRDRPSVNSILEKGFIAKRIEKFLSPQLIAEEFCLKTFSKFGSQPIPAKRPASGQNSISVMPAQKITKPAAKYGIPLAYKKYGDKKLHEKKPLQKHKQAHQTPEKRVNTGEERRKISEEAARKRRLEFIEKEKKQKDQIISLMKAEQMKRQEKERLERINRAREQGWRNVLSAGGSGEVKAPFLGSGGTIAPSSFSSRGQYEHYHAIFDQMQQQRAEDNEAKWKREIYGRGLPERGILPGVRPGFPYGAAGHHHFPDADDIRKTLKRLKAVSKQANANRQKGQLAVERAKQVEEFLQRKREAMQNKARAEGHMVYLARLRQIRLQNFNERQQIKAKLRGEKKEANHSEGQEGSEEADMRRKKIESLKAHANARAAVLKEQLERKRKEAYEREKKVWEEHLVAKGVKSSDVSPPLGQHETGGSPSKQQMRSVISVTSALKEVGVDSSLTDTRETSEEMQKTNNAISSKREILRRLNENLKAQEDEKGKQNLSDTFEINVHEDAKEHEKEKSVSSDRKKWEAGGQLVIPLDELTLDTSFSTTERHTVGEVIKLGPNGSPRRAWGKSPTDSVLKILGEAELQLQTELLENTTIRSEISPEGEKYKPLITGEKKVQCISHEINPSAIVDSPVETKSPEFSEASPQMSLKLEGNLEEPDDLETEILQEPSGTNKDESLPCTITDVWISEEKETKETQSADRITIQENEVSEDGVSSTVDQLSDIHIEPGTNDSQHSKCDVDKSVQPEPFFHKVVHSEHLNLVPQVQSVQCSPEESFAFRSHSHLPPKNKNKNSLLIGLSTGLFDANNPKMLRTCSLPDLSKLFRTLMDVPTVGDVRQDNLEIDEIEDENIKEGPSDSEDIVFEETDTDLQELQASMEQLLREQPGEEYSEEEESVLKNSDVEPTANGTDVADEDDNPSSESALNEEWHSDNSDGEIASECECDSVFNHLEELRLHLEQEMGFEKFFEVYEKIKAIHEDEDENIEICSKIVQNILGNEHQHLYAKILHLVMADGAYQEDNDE
Description: (§1) The analysis was performed by ProQinase (Freiburg, Germany).

TTBK2 = target: T2, TTBK2 (Homo sapiens, UniProt Q6IQ55)
T2 construct: purchased ProQinase (Freiburg, Germany)
Description: as §1

GRK5 = target: T3, GRK5 (Homo sapiens, UniProt P34947)
T3 construct: purchased ProQinase (Freiburg, Germany)
Description: as §1

CDK3/CycE1 = target: T4, CDK3/CycE1 (Homo sapiens, UniProt Q00526)
T4 construct: purchased ProQinase (Freiburg, Germany)
Description: as §1

CK1gamma1 = target: T5, CK1gamma1 (Homo sapiens, UniProt Q9HCP0)
T5 construct: purchased ProQinase (Freiburg, Germany)
Description: as §1

TNK1 = target: T6, TNK1 (Homo sapiens, UniProt Q13470)
T6 construct: purchased ProQinase (Freiburg, Germany)
T6 sequence (Q13470 1-666): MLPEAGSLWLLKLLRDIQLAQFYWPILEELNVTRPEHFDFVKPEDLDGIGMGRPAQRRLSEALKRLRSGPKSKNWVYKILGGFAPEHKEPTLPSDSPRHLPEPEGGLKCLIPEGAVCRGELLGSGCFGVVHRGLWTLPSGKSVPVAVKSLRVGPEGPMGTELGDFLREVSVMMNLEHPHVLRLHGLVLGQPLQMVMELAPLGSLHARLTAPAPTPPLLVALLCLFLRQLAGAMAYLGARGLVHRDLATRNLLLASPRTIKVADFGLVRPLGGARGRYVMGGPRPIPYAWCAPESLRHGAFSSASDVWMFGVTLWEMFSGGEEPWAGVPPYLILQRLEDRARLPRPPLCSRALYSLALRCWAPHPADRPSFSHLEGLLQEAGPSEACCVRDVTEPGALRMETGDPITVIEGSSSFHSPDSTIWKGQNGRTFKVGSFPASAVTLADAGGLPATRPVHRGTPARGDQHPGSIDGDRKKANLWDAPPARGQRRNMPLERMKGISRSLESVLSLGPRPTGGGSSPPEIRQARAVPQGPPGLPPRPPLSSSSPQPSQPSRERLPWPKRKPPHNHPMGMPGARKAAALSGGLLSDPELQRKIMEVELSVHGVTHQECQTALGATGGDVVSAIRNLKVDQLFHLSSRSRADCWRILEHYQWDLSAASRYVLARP
Description: as §1

CSK = target: T7, CSK (Homo sapiens, UniProt P41240)
T7 construct: purchased ProQinase (Freiburg, Germany)
Description: as §1

T4 sequence (Q00526 whole entry): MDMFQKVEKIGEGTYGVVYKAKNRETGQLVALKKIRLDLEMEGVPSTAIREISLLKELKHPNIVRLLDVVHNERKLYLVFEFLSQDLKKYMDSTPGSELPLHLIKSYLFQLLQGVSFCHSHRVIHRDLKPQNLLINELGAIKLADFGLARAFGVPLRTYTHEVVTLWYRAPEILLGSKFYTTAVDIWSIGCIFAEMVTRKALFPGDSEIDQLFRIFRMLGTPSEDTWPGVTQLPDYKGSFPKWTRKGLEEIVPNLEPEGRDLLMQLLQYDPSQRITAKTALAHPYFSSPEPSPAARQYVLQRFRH
T4 sequence (P24864 whole entry partner): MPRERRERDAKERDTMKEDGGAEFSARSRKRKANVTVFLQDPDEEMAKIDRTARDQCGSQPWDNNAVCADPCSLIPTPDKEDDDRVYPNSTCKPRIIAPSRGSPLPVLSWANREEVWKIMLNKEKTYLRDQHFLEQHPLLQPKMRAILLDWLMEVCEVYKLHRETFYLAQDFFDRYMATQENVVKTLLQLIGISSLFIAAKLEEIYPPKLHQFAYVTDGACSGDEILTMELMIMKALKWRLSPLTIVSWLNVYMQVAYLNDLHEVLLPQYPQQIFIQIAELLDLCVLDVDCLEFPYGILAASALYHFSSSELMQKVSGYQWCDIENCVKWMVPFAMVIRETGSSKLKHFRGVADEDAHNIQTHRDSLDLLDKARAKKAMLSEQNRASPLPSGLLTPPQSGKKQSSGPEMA
T2 sequence (Q6IQ55 whole entry): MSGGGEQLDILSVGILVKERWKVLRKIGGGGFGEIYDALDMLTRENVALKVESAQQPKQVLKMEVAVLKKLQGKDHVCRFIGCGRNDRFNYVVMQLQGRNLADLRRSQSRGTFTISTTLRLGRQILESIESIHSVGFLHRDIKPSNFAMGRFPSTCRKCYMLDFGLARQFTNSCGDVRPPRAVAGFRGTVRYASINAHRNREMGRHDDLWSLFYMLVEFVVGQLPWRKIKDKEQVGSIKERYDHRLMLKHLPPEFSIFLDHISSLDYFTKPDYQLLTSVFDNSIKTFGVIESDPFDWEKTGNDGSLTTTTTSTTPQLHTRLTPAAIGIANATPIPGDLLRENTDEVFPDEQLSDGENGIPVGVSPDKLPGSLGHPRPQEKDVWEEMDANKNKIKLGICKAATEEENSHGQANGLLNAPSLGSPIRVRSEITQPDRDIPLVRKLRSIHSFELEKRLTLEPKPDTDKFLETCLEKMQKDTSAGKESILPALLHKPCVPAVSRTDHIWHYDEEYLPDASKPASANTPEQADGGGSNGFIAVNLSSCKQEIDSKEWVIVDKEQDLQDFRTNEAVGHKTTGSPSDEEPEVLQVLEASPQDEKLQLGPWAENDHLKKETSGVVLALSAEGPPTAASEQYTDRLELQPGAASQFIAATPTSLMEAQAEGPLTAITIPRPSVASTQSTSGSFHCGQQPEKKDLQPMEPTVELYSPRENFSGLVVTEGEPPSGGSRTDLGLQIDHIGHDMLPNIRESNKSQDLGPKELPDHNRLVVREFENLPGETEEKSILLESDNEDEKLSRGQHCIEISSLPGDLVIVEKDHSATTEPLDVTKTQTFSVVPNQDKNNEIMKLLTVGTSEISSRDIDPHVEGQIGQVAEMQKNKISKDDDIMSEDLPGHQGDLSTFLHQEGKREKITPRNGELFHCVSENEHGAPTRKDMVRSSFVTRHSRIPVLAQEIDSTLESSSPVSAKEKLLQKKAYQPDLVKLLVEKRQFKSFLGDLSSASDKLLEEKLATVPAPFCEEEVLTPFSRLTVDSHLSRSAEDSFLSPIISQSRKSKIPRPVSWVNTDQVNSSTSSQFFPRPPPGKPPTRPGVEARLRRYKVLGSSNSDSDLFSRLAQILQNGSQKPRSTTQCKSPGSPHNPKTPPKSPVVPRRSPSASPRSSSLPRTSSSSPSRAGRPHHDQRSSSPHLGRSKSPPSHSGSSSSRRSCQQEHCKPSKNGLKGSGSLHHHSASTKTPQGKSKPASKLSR
T7 sequence (P41240 whole entry): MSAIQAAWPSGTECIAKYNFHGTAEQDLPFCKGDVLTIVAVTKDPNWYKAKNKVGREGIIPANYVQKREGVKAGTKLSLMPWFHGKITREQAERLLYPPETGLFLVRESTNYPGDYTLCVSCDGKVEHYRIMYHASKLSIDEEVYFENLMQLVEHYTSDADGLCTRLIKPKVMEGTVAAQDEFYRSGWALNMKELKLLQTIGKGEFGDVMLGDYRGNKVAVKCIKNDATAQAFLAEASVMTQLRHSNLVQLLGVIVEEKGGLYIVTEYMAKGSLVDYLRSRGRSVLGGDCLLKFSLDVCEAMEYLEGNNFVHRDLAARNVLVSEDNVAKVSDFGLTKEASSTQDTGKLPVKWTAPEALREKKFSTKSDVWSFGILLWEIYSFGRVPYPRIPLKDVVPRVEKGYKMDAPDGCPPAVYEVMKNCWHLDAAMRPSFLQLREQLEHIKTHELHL
T5 sequence (Q9HCP0 whole entry): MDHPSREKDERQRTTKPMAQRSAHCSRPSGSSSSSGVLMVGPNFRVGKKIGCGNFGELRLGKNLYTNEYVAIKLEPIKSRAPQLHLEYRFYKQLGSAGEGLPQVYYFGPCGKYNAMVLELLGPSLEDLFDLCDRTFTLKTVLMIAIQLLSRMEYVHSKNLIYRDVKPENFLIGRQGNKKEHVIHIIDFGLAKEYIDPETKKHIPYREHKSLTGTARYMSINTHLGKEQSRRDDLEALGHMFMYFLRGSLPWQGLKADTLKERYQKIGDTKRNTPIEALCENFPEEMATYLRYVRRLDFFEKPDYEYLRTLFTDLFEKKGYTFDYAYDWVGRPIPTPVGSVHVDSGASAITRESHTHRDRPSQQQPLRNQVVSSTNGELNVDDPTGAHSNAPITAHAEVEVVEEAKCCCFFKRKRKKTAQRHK
T3 sequence (P34947 whole entry): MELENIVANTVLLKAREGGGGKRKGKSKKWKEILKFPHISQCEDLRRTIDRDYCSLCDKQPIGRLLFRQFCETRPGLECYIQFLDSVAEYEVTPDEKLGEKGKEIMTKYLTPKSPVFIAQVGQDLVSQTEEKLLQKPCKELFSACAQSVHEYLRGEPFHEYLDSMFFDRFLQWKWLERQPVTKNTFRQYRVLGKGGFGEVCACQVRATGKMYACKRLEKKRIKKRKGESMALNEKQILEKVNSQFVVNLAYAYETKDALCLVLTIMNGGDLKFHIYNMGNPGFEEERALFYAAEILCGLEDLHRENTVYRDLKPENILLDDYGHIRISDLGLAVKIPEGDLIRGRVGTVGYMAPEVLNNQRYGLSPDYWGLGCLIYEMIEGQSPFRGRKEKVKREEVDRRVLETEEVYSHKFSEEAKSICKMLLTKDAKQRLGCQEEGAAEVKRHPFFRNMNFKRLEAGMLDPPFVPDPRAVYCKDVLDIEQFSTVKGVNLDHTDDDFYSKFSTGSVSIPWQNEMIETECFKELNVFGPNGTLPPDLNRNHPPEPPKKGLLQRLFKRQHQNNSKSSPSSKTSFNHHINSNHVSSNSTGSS

O=C(Cc1ccccc1)Nc1ccc(F)c(Nc2ccc3c(c2)CCCCC3=O)c1 [Compound 100]
Residual activity (NEK1; 1.0E-05 M): 96 % of control
Residual activity (NEK1; 1.0E-06 M): 98 % of control
Residual activity (TTBK2; 1.0E-05 M): 126 % of control
Residual activity (TTBK2; 1.0E-06 M): 109 % of control
Residual activity (GRK5; 1.0E-05 M): 106 % of control
Residual activity (GRK5; 1.0E-06 M): 104 % of control
Residual activity (CDK3/CycE1; 1.0E-05 M): 80 % of control
Residual activity (CDK3/CycE1; 1.0E-06 M): 90 % of control
Residual activity (CK1gamma1; 1.0E-05 M): 115 % of control
Residual activity (CK1gamma1; 1.0E-06 M): 111 % of control
Residual activity (TNK1; 1.0E-05 M): 72 % of control
Residual activity (TNK1; 1.0E-06 M): 101 % of control
Residual activity (CSK; 1.0E-05 M): 96 % of control
Residual activity (CSK; 1.0E-06 M): 106 % of control

O=C(Nc1ccc(F)c(Nc2ccc3c(c2)CCCCC3=O)c1)c1cccc(F)c1 [Compound 109]
Residual activity (NEK1; 1.0E-05 M): 93 % of control
Residual activity (NEK1; 1.0E-06 M): 96 % of control
Residual activity (TTBK2; 1.0E-05 M): 113 % of control
Residual activity (TTBK2; 1.0E-06 M): 105 % of control
Residual activity (GRK5; 1.0E-05 M): 103 % of control
Residual activity (GRK5; 1.0E-06 M): 102 % of control
Residual activity (CDK3/CycE1; 1.0E-05 M): 82 % of control
Residual activity (CDK3/CycE1; 1.0E-06 M): 91 % of control
Residual activity (CK1gamma1; 1.0E-05 M): 57 % of control
Residual activity (CK1gamma1; 1.0E-06 M): 86 % of control
Residual activity (TNK1; 1.0E-05 M): 85 % of control
Residual activity (TNK1; 1.0E-06 M): 89 % of control
Residual activity (CSK; 1.0E-05 M): 109 % of control
Residual activity (CSK; 1.0E-06 M): 112 % of control
